In ChEMBL document CHEMBL1681767, “Design and synthesis of tricyclic tetrahydroquinolines as a new series of nonsteroidal selective androgen receptor modulators (SARMs)” (Bioorg Med Chem Lett, 2011):
Active and inactive are the calls of the source. The calls are words filed in the database; no cut-off is given here.

Key:
[1] = biological target: T1, Mineralocorticoid receptor (Rattus norvegicus, UniProt P22199); assay: Displacement of [3H]aldosterone from Sprague-Dawley rat MR by liquid scintillation counting
T1 sequence (P22199 whole entry): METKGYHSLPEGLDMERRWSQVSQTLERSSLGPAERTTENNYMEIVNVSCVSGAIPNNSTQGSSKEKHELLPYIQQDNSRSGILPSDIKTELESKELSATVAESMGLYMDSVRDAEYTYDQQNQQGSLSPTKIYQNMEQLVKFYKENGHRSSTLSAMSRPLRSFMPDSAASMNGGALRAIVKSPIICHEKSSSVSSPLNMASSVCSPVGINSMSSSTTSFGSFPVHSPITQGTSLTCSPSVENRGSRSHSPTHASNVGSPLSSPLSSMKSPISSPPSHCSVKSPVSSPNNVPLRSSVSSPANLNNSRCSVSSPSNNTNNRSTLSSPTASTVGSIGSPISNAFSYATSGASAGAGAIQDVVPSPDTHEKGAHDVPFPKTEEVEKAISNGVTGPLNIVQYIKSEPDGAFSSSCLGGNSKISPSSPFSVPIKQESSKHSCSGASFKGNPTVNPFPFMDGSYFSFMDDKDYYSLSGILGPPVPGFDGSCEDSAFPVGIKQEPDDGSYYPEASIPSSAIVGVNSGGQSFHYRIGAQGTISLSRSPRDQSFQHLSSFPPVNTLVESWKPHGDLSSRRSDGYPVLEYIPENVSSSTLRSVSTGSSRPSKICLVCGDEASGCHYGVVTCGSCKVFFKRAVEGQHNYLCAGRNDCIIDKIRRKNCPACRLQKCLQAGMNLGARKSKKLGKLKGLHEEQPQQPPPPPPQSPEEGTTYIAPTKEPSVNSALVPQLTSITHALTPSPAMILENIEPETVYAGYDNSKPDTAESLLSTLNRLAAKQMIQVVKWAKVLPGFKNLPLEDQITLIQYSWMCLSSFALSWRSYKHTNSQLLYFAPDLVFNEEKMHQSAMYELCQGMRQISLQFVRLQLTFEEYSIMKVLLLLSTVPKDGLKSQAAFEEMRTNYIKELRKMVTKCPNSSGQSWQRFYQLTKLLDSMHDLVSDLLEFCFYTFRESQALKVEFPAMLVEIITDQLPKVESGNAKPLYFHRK

[2] = Displacement of [3H]17-beta-estradiol from rabbit ER by liquid scintillation counting; design: species or system Oryctolagus cuniculus
Rattus norvegicus [3] = assay: Recovery of […] weight in orchidectomized Sprague-Dawley rat at 3 mg/kg, sc relative to control; assay type: functional; details: route subcutaneous
Progesterone receptor = biological target: T2, Progesterone receptor (Oryctolagus cuniculus, UniProt P06186); assay: Displacement of [3H]progesterone from rabbit PR by liquid scintillation counting
T2 sequence (P06186 whole entry): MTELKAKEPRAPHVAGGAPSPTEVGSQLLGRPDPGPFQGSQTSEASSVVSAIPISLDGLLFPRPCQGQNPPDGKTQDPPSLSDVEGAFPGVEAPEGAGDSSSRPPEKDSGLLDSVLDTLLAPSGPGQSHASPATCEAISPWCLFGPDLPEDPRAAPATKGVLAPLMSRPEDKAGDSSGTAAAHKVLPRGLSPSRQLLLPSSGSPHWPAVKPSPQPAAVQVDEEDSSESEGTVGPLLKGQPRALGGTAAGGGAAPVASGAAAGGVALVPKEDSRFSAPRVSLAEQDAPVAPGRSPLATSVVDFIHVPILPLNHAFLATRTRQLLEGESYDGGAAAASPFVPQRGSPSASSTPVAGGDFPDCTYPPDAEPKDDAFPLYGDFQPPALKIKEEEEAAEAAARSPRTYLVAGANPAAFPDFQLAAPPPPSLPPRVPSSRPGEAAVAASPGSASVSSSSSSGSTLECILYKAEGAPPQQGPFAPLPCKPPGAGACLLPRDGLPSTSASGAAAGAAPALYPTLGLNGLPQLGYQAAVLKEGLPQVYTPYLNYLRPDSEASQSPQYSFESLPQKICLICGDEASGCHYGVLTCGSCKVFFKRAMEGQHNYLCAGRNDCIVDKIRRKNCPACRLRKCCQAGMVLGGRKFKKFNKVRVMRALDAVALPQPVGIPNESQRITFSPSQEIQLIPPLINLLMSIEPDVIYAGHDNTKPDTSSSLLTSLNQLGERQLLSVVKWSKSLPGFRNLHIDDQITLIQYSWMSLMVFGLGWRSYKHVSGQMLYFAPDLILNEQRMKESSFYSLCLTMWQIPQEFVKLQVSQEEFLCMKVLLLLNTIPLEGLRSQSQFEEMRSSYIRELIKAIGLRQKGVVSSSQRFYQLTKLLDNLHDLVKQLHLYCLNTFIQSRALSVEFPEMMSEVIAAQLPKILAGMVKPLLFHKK

Rattus norvegicus [4] = assay: Recovery of levator ani muscle weight in orchidectomized Sprague-Dawley rat at 3 mg/kg, sc; assay type: functional, organism-based; design: dose 3 mg/kg
Glucocorticoid receptor = biological target: T3, Glucocorticoid receptor (Rattus norvegicus, UniProt P06536); assay: Displacement of [3H]dexamethasone from Sprague-Dawley rat GR by liquid scintillation counting
T3 sequence (P06536 whole entry): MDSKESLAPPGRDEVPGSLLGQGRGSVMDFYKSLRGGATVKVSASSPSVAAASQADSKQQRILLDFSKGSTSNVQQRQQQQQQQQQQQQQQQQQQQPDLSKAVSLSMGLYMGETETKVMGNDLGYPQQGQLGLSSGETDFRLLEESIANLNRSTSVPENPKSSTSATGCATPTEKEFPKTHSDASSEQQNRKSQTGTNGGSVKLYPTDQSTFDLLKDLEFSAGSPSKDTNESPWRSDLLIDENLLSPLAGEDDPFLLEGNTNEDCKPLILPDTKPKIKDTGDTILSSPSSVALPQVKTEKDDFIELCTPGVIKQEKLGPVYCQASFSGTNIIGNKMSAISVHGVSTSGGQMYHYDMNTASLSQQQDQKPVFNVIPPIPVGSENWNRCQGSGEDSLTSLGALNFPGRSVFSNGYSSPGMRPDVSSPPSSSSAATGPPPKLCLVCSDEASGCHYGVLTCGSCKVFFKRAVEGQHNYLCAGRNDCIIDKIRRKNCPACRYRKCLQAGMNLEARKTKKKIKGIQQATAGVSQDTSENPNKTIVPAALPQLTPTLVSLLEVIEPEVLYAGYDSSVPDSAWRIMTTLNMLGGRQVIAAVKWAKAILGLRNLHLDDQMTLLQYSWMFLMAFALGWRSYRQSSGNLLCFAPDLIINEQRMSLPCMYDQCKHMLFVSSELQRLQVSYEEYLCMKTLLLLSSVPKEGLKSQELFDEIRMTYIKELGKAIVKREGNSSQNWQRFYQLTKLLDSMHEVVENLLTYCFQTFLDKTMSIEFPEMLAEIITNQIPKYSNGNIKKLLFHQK

CC(C)(CO)[C@H]1Nc2ccc([N+](=O)[O-])cc2[C@H]2C=CC[C@H]21
IC50 [1]: 6.3 µM | IC50 [2]: > 1000 µM | Activity (Rattus norvegicus [3]): 50% | IC50 (Progesterone receptor): 0.13 µM | Activity (Rattus norvegicus [4]): Active | IC50 (Glucocorticoid receptor): 18 µM
